Test results reported in patent publication US20250075209A1, “RNAS FOR COMPLEMENT INHIBITION” (Apellis Pharmaceuticals, Inc., priority 2021, published 2025).
Oligonucleotides are written 5' to 3', each unit as a sugar letter and its base; * is a phosphorothioate linkage, no mark a phosphodiester; rarer units and linkages stand in square brackets, end groups in braces. Plain capitals give the bases only. Bridges are numbered along the chain shown (N, C = ends). [ ]: non-standard residue; d: D form. Bpa = N[C@@H](Cc1ccc(C(=O)c2ccccc2)cc1)C(=O)O; 1Nal = N[C@@H](Cc1cccc2ccccc12)C(=O)O; 2Nal = N[C@@H](Cc1ccc2ccccc2c1)C(=O)O; Igl = N[C@H](C(=O)O)C1Cc2ccccc2C1; m = 2'-O-methyl; f = 2'-fluoro

Legend:
factor B mRNA transcript = assay: Knockdown of factor B expression in HepG2 cells using siRNAs, dose response experiments (DRC); assay type: cell-based, human; details: Table 8; for Max Factor B inhibition (%): dose response up to 100 nM
Procedure: HepG2 cells were obtained from ATCC (ATCC in partnership with LGC Standards, Wesel, Germany, cat. #ATCC-HB-8065) and cultured in MEM Eagle (#M2279, Sigma-Aldrich, Germany), supplemented to contain 10% fetal calf serum (#1248D, Biochrom GmbH, Berlin, Germany), 1×non-essential amino acids (#K0293; Biochrom, Berlin, Germany), 4 mM L-Glutamine (#K0283, Biochrom, Berlin, Germany) and 100 U/ml Penicillin/100 μg/ml Streptomycin (#A2213, Biochrom GmbH, Berlin, Germany) at 37° C. in an atmosphere with 5% CO2 in a humidified incubator.
24 siRNAs were designed and synthesized to target different regions of the factor B mRNA transcript. In this experiment, the sense strand of each siRNA contained 18 nucleotides identical to a target region sequence on the factor B transcript (SEQ ID NO: 75), and one additional adenine nucleotide at the 3′ end. Additionally, in this experiment, the antisense strand contained 18 nucleotides complementary to a target region sequence on the factor B transcript (SEQ ID NO: 75), and one additional uracil nucleotide at the 5′ end, and 2 additional uracil nucleotides at the 3′ end.
Transfection of siRNA was carried out with Lipofectamine RNAiMax (Invitrogen/Life Technologies, Karlsruhe, Germany) according to manufacturer's instructions for reverse transfection.
Each siRNA was tested using dose response experiments (DRC) in HepG2 cells. Dose-response experiments were done with siRNA in 10 concentrations transfected in quadruplicates, starting at 100 nM in 6-fold dilutions steps down to ˜10 fM. Mock transfected cells served as negative controls.
For each well, the target mRNA level was normalized to the respective GAPDH mRNA level. The activity of a given siRNA was expressed as percent mRNA concentration of the respective target (normalized to GAPDH mRNA) in treated cells, relative to the target mRNA concentration (normalized to GAPDH mRNA) averaged across mock transfected wells (DRCs).
Dose response experiments described above were repeated in a subset of siRNAs shown in Table 9, specifically siRNAs 2, 7, 8, and 3.

complement activation = details: relative to compstatin amidated at the C-terminus; based on published data (WO2004/026328, WO2007044668, Mallik 2005, Katragadda 2006); cited from earlier work
[1] = reverse transfection, 10 concentrations from 100 nM in 6-fold dilutions, factor B mRNA normalized to GAPDH, relative to mock

13 (sense mA*mC*fGmUmUmGfCfCfCmUmGfAmUmCmAmAfGmCmA; antisense mU*fG*mCmUmUmGmAmUmCmAmGmGmGfCmAmAmCmGmU*mU*mU; siRNA) [compound 13]
Max Factor B inhibition (%) (factor B mRNA transcript): 80.41% | IC20 (factor B mRNA transcript; [1]): 0.06 nM | IC50 (factor B mRNA transcript; [1]): 0.69 nM | IC80 (factor B mRNA transcript; [1]): 1340 nM

14 (sense mG*mG*fAmGmCmCfAfAfAmAmAfGmUmGmUmCfUmAmA; antisense mU*fU*mAmGmAmCmAmCmUmUmUmUmUfGmGmCmUmCmC*mU*mU; siRNA) [compound 14]
Max Factor B inhibition (%) (factor B mRNA transcript): 79.20% | IC20 (factor B mRNA transcript; [1]): 0.22 nM | IC50 (factor B mRNA transcript; [1]): 1.3 nM

15 (sense mC*mC*fGmAmUmUfAfCfCmAmCfAmAmGmCmAfAmCmA; antisense mU*fG*mUmUmGmCmUmUmGmUmGmGmUfAmAmUmCmGmG*mU*mU; siRNA) [compound 15]
Max Factor B inhibition (%) (factor B mRNA transcript): 78.63% | IC20 (factor B mRNA transcript; [1]): 1.7 nM | IC50 (factor B mRNA transcript; [1]): 6.31 nM

16 (sense mA*mA*fUmGmCmAfGfAfCmUmGfGmGmUmCmAfCmGmA; antisense mU*fC*mGmUmGmAmCmCmCmAmGmUmCfUmGmCmAmUmU*mU*mU; siRNA) [compound 16]
Max Factor B inhibition (%) (factor B mRNA transcript): 77.05% | IC20 (factor B mRNA transcript; [1]): 0.01 nM | IC50 (factor B mRNA transcript; [1]): 0.3 nM

17 (sense mC*mU*fCmAmCmGfCfCfCmGmAfGmAmCmUmUfUmCmA; antisense mU*fG*mAmAmAmGmUmCmUmCmGmGmGfCmGmUmGmAmG*mU*mU; siRNA) [compound 17]
Max Factor B inhibition (%) (factor B mRNA transcript): 75.50% | IC20 (factor B mRNA transcript; [1]): 0.07 nM | IC50 (factor B mRNA transcript; [1]): 0.85 nM

18 (sense mC*mA*fGmCmGmAfUfCfUmGmUfGmAmCmAmAfCmGmA; antisense mU*fC*mGmUmUmGmUmCmAmCmAmGmAfUmCmGmCmUmG*mU*mU; siRNA) [compound 18]
Max Factor B inhibition (%) (factor B mRNA transcript): 75.45% | IC20 (factor B mRNA transcript; [1]): 0.3 nM | IC50 (factor B mRNA transcript; [1]): 2.02 nM

19 (sense mC*mU*fAmCmCmAfCfUfUmGmCfCmAmGmCmAfAmCmA; antisense mU*fG*mUmUmGmCmUmGmGmCmAmAmGfUmGmGmUmAmG*mU*mU; siRNA) [compound 19]
Max Factor B inhibition (%) (factor B mRNA transcript): 74.03% | IC20 (factor B mRNA transcript; [1]): 0.16 nM | IC50 (factor B mRNA transcript; [1]): 1.12 nM

20 (sense mU*mU*fUmAmUmGfAfCfUmAmUfGmAmCmGmUfUmGmA; antisense mU*fC*mAmAmCmGmUmCmAmUmAmGmUfCmAmUmAmAmA*mU*mU; siRNA) [compound 20]
Max Factor B inhibition (%) (factor B mRNA transcript): 74.02% | IC20 (factor B mRNA transcript; [1]): 1.1 nM | IC50 (factor B mRNA transcript; [1]): 3.52 nM

21 (sense mC*mC*fUmUmGmAfUfAfGmUmUfCmAmCmAmAfGmAmA; antisense mU*fU*mCmUmUmGmUmGmAmAmCmUmAfUmCmAmAmGmG*mU*mU; siRNA) [compound 21]
Max Factor B inhibition (%) (factor B mRNA transcript): 72.43% | IC20 (factor B mRNA transcript; [1]): 0.12 nM | IC50 (factor B mRNA transcript; [1]): 1.63 nM

22 (sense mC*mU*fCmAmAmGfAfGfGmUmGfGmCmCmGmAfAmGmA; antisense mU*fC*mUmUmCmGmGmCmCmAmCmCmUfCmUmUmGmAmG*mU*mU; siRNA) [compound 22]
Max Factor B inhibition (%) (factor B mRNA transcript): 72.01% | IC20 (factor B mRNA transcript; [1]): 0.32 nM | IC50 (factor B mRNA transcript; [1]): 2.09 nM

23 (sense mU*mU*fUmUmAmUfGfAfCmUmAfUmGmAmCmGfUmUmA; antisense mU*fA*mAmCmGmUmCmAmUmAmGmUmCfAmUmAmAmAmA*mU*mU; siRNA) [compound 23]
Max Factor B inhibition (%) (factor B mRNA transcript): 68.74% | IC20 (factor B mRNA transcript; [1]): 0.22 nM | IC50 (factor B mRNA transcript; [1]): 2.44 nM

24 (sense mU*mU*fCmCmGmAfCfUfUmCmUfCmCmAmAmGfAmGmA; antisense mU*fC*mUmCmUmUmGmGmAmGmAmAmGfUmCmGmGmAmA*mU*mU; siRNA) [compound 24]
Max Factor B inhibition (%) (factor B mRNA transcript): 61.56% | IC20 (factor B mRNA transcript; [1]): 0.51 nM | IC50 (factor B mRNA transcript; [1]): 2.76 nM

Ac-ICV(1-Nal)QDWGAHRCT-COOH (Ac-ICV[1Nal]QDWGAHRCT-OH; not fully specified (bridges); printed as Ac-ICV(1-Nal)QDWGAHRCT-COOH; cysteine pairing not given here) [Ac V4(1-Nal)/H9A-OH]
Activity over compstatin (complement activation): 30xmore

Ac-ICV(2-Igl)QDWGAHRCT-CONH2 (Ac-ICV[Igl]QDWGAHRCT-NH2; not fully specified (bridges); printed as Ac-ICV(2-Igl)QDWGAHRCT-CONH2; cysteine pairing not given here) [Ac-V42Igl/H9A]
Activity over compstatin (complement activation): 39xmore

Ac-ICV(2-Igl)QDWGAHRCT-COOH (Ac-ICV[Igl]QDWGAHRCT-OH; not fully specified (bridges); printed as Ac-ICV(2-Igl)QDWGAHRCT-COOH; cysteine pairing not given here) [Ac-V42Igl/H9A-OH]
Activity over compstatin (complement activation): 37xmore

Ac-ICV(2-Nal)CQDWGAHRCT-ONH2 (Ac-ICV[2Nal]QDWGAHRCT-NH2; ends and bridges not checked) [Ac-V4(2-Nal)/H9A]
Activity over compstatin (complement activation): 99xmore

Ac-ICV(2-Nal)QDWGAHRCT-COOH (Ac-ICV[2Nal]QDWGAHRCT-OH; not fully specified (bridges); printed as Ac-ICV(2-Nal)QDWGAHRCT-COOH; cysteine pairing not given here) [Ac V4(2-Nal)/H9A-OH]
Activity over compstatin (complement activation): 38xmore

Ac-ICV(Bpa)QDWGAHRCT-CONH2 (Ac-ICV[Bpa]QDWGAHRCT-NH2; not fully specified (bridges); printed as Ac-ICV(Bpa)QDWGAHRCT-CONH2; cysteine pairing not given here) [Ac-V4(Bpa)/H9A]
Activity over compstatin (complement activation): 86xmore

Ac-ICV(Bpa)QDWGAHRCT-COOH (Ac-ICV[Bpa]QDWGAHRCT-OH; not fully specified (bridges); printed as Ac-ICV(Bpa)QDWGAHRCT-COOH; cysteine pairing not given here) [Ac-V4(Bpa)/H9A-OH]
Activity over compstatin (complement activation): 49xmore

Ac-ICVVQDWGHHRCT-CONH2 [Ac-compstatin]
Activity over compstatin (complement activation): 3xmore

Ac-ICVWQDWGAHRCT-CONH2 (Ac-ICVWQDWGAHRCT-NH2; disulfide 2-12 (inferred)) [Ac-V4W/H9A]
Activity over compstatin (complement activation): 45xmore

Ac-ICVWQDWGAHRCdT-COOH [Ac-V4W/H9A/T13dT-OH]
Activity over compstatin (complement activation): 55xmore

Ac-ICVYQDWGAHRCT-CONH2 [Ac-V4Y/H9A]
Activity over compstatin (complement activation): 14xmore

H-GICV(6fW)QD(6fW)GAHRCTN-COOH (GICVXQDXGAHRCTN; not fully specified; 6-fluoro-Trp residues; C-terminal acid; SITE 1 N-term H - hydrogenated Glycine; SITE 5 6-fluoro-tryptophan; SITE 8 6-fluoro-tryptophan; SITE 15 C-term COOH - Asparagine carboxide) [+G/V4(6fW)/W7(6fW)H9A + N-OH]
Activity over compstatin (complement activation): 126xmore
